Measurements taken from PMC12903969, “Discovery of a Novel and Potent Kir4.1 Inhibitor as a Safe and Rapid‐Onset Antidepressant Agent in Mice” (Advanced Science, 2025).
Values joined by “and” are separate entries in the source; they are usually repeats but may differ in a detail not shown here. Equal entries are not always repeated. Where two headings read alike, the source gives them in different places.

Assays:
[1] = molecular target: T1, Kir4.1 (Homo sapiens, UniProt P78508); assay: Whole-cell patch clamp, Kir4.1 currents in transfected CHO-K1 cells; format: cell-based; conditions: for inhibition at 1 µM: CHO-K1, 1 μM; for inhibition at 10 µM: CHO-K1, 10 μM; for IC50: whole-cell patch clamp
T1 construct: host or cells: CHO-K1
T1 sequence (P78508 1-379): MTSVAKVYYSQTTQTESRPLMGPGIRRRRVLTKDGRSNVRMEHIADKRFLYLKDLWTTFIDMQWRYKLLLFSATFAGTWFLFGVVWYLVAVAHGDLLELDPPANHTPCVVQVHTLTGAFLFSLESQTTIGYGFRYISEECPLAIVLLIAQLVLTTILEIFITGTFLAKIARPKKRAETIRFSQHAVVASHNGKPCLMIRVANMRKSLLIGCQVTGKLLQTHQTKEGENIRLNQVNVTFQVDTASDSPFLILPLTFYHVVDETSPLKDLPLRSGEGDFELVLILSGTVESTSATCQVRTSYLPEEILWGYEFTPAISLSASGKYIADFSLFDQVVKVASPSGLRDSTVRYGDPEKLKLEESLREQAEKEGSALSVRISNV
Method in brief: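 Transiently transfected CHO-K1 cells (with EGFP), whole-cell voltage clamp at room temperature; pipette 140 mM KCl pH 7.2, bath 140 mM NaCl/5 mM KCl pH 7.4. Currents evoked from −80 mV holding by a step to −120 mV then ramp to +50 mV; compounds applied by perfusion.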

[2] = system: MDA-MB-468 breast cancer cells; assay: Cytotoxicity test (CCK-8); format: cell-based; conditions: Homo sapiens, MDA-MB-468, 48 h, CCK-8, 48 h; read-out: IC50 against MDA-MB-468 breast cancer cells
Method in brief: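 Cells seeded at 12,000/well in L15 for 24 h, then exposed 48 h to compounds at 0.41-100.00 µM (DMSO <0.4%). Viability by 10% CCK-8, 2 h at 37 °C, absorbance 450 nm, expressed as percent of control.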

[3] = system: C57BL/6J mice; assay: Seizure threshold measurement in maximal electroshock (MES); format: in vivo; set-up: seizure incidence, Single dose-MES / seizure incidence, Multiple dose-MES: unit not given here; conditions: for seizure incidence, Multiple dose-MES / seizure incidence, Single dose-MES: JX3212 10 mpk
Experimental: Male C57BL/6J mice underwent corneal electroshock stimulation using an Orchid Scientifics EC‐02 stimulator with a fixed pulse duration of 0.2 s. The current intensity was titrated in a stepwise manner (0.1 mA increments) based on real‐time behavioral responses during serial testing. Seizure severity was quantified using the hindlimb tonic extension score, with rigorous blinding applied to the vehicle‐ and JX3212‐treated groups. Subsequently, CS50 values were determined.

[4] = system: mice; assay: Shuttle box test (SBT); format: in vivo
Experimental: This test was designed to measure learning and memory function in rodents. The shuttle box consists of two compartments connected by a freely passable gate. The mice were allowed to explore the test chamber freely for 5 min before the test to eliminate exploratory reflexes. Each mouse was placed in one compartment of the shuttle box. The conditioning protocol began with a 5‐s conditioned stimulus presentation of light (200 lux) and auditory tone (100 dB, 1000 Hz), followed immediately by a 3‐s footshock (300 µA) unconditioned stimulus. Escape to the opposite compartment during the conditioned stimulus presentation was scored as an active avoidance response, whereas escape occurring only after shock onset was recorded as […]. […] Each test session consisted of 40 trials with 10‐s inter‐trial intervals, with the number of active avoidance responses systematically recorded.

[5] = system: mice; assay: 21-day chronic administration: body weight, organ weight, serum biochemistry
[6] = 10 mg/kg, 21-day chronic administration, individual animals
[7] = serum, 10 mg/kg, 21-day chronic administration, individual animals

With `c1ccc2c(c1)oc1ccc(Nc3ccnc(NCCCN4CCOCC4)n3)cc12` [JX3212, N^4-(dibenzo[b,d]furan-2-yl)-N^2-(3-morpholinopropyl)pyrimidine-2,4-diamine] the inhibition at 0.5 µM ([1]; CHO-K1, 0.5 μM, +50 mV, read-out: Kir4.1 Inhibition ± SD (%) at 0.5 μM, +50 mV) was 82.8 ± 1.51%, the inhibition at 0.5 µM ([1]; CHO-K1, 0.5 μM, -120 mV, read-out: Kir4.1 Inhibition ± SD (%) at 0.5 μM, -120 mV) was 73.2 ± 3.59% and the inhibition at 0.5 µM ([1]; CHO-K1, 0.5 µM, read-out: Kir4.1 inhibition at 0.5 µM) was > 60%. It also gave an inhibition at 1 µM ([1]; +50 mV, read-out: Kir4.1 Inhibition ± SD (%) at 1 μM, +50 mV) of 82.5 ± 5.51%, an inhibition at 1 µM ([1]; -120 mV, read-out: Kir4.1 Inhibition ± SD (%) at 1 μM, -120 mV) of 84.5 ± 3.09% and an inhibition at 3 µM ([1]; CHO-K1, 3 µM, mean ± SEM, read-out: current inhibition, Kir4.1 WT) of 92.4 ± 2.25%. The inhibition at 10 µM ([1]; +50 mV, read-out: Kir4.1 Inhibition ± SD (%) at 10 μM, +50 mV) was 96 ± 1.52%, the inhibition at 10 µM ([1]; -120 mV, read-out: Kir4.1 Inhibition ± SD (%) at 10 μM, -120 mV) was 97.3 ± 1.01% and the inhibition at 3 µM ([1]; CHO-K1, JX3212 3 µM (Fig 2A), read-out: Kir isoforms: Kir4.1 inhibition, single recordings) was 94.9%. For the same molecule, the inhibition at 3 µM ([1]; CHO-K1, JX3212 3 µM (Fig 2D), read-out: Mutation: Kir4.1 WT inhibition, single recordings) was 92.1%, the “Kir isoforms: Kir4.1 inhibition, single recordings” value ([1]; JX3212 3 µM (Fig 2A)) was 94.131 and 95.7029 and the “Mutation: Kir4.1 WT inhibition, single recordings” value ([1]; JX3212 3 µM (Fig 2D)) was 94.7739 and 90.2954. For the same molecule, the “improvement in target activity over lead EHop-016” value ([1]; Kir4.1 IC50 ratio) was 2.6 fold, the IC50 ([1]; CHO cells transiently expressing Kir4.1, +50 mV, read-out: IC50 for Kir4.1 inhibition (+50 mV, outward currents)) was 190 nM and the IC50 ([1]; CHO cells transiently expressing Kir4.1, −120 mV, read-out: IC50 for Kir4.1 inhibition (−120 mV, inward currents)) was 280 nM. For the same molecule, the IC50 [2] was 13700 ± 610 nM, the “seizure susceptibility, maximal electronic seizure model (in words)” value ([3]; 10 mg kg−1, single or 14-day consecutive administration) was “did not alter seizure susceptibility” and the “seizure incidence, Multiple dose-MES” value ([3]; stimulus 0.45 mA) was 0. For the same molecule, the “seizure incidence, Single dose-MES” value ([3]; stimulus 0.45 mA) was 0, the “seizure incidence, Multiple dose-MES” value ([3]; stimulus 0.55 mA) was 12.5 and the “seizure incidence, Single dose-MES” value ([3]; stimulus 0.55 mA) was 37.5. The “seizure incidence, Multiple dose-MES” value ([3]; stimulus 0.65 mA) was 50, the “seizure incidence, Single dose-MES” value ([3]; stimulus 0.65 mA) was 50 and the “seizure incidence, Multiple dose-MES” value ([3]; stimulus 0.75 mA) was 87.5. For the same molecule, the “seizure incidence, Single dose-MES” value ([3]; stimulus 0.75 mA) was 75, the “shuttle box active avoidance responses (in words)” value ([4]; chronic 10 mg kg−1 per day) was “no significant differences” and the “SBT active avoidance responses, single mice” value ([4]; chronic 10 mg/kg per day (Fig 5G)) was 22 and 29 and 31 and 32 and 21 and 24 and 28 and 25. The “body weight during 21-day chronic administration (in words)” value ([5]; 10 mg kg−1 per day, vs vehicle) was “no evident effect on body weight”, the “Kidney/Body Weight Ratio (%)” value [5, 6] was 1.122% and 1.187% and 1.1008% and 0.9864% and 1.07% (2×) and 1.145% and 1.0748% and 1.06% and 1.171% and the “Liver/Body Weight Ratio (%)” value [5, 6] was 5.072% and 4.477% and 4.872% and 4.814% and 4.623% and 5.084% and 4.1308% and 4.637% and 4.391% and 4.945%. For the same molecule, the Body weight ([5]; 10 mg/kg, day 7, individual animals) was 24.2 (3×) and 24 and 25.6 and 25.4 and 23.8, the Body weight ([5]; 10 mg/kg, day 8, individual animals) was 24 and 25.9 and 24.2 (2×) and 24.4 and 25 and 26 and the Body weight ([5]; 10 mg/kg, day 9, individual animals) was 25 and 24 and 26.3 and 25.6 (2×) and 24.7 and 24.1. For the same molecule, the Body weight ([5]; 10 mg/kg, day 10, individual animals) was 26.3 and 25.4 (2×) and 24.1 and 25 and 25.5, the “liver-to-body and kidney-to-body weight ratio (in words)” value ([5]; 21-day administration) was “no appreciable differences” and the “serum aspartate aminotransferase and urea levels (in words)” value ([5]; 21-day administration) was “comparable”. The “serum creatinine level (in words)” value ([5]; 21-day administration) was “marked decreases in creatinine levels”, the ALT [5, 7] was 36 and 35 and 41 and 32 and 37 and 33 and 31 and 29 and the AST [5, 7] was 167 and 207 and 243 and 139 and 147 and 172 and 200 and 131 and 133 and 155. For the same molecule, the Cr [5, 7] was 19 and 18 and 20 and 21 and 22 and 23 and the Urea [5, 7] was 5.59 and 3.68 and 6 and 5.19 and 5.88 and 6.46 and 5.16 and 5.73 and 5.29 and 5.71.
